Source: patent US7220414B2, “Degradable polyacetal polymers” (A.P. Pharma, Inc., priority 2000, dated 2007)

Test system: red blood cell
Assay: red blood cell (RBC) lysis assay
Excerpt: The degradation products were obtained by dissolving polyacetal 22 in phosphate buffered saline (PBS), adjusting the pH to 1–2 by the addition of HCl to allow the polyacetal to degrade, then adding a small amount of NaOH to readjust the pH to 7.4.

red blood cell (RBC) lysis: did not display RBC lysis
Substance: Dextran
